Measured values reported in patent publication US11077100B2, “Tetrahydroquinoline derivatives as P2X7 receptor antagonists” (RaQualia Pharma Inc., priority 2017, dated 2021).

Experiments:
[1] = biological target: rat P2X7 (Rattus norvegicus (Rat), UniProt Q64663); assay: Rat P2X7 functional assay (Ca2+ influx, Fluo-4, FDSS); format: cell-based; details: HEK293 cells stably expressing rat P2X7; BzATP final 10 microM; 7-point dose-response; read-out: Antagonistic activities with respect to the rat P2X7 receptor (IC50)
In short: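 HEK293 cells stably expressing rat P2X7 (5,000/well, plated 24 h before) loaded with Fluo-4; compounds preincubated 10 min at room temperature, then Ca2+ rise after 10 microM BzATP (final) read on FDSS (480/540 nm). IC50 from 7-point curves, duplicate wells.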

[2] = biological target: human P2X7 (Homo sapiens (Human), UniProt Q99572); assay: Human P2X7 functional assay (Ca2+ influx, Fluo-4, FDSS); format: cell-based; details: antagonistic activity with respect to the human P2X7 receptor; BzATP final concentration 80 microM
In short: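 HEK293 cells stably expressing C-terminally FLAG-tagged human P2X7, loaded with Fluo-4. Compounds were preincubated for 10 min at room temperature, then 80 μM BzATP (final) was added and Ca2+ fluorescence read at 540 nm (480 nm excitation) by FDSS. IC50 values come from 7-point curves, duplicate wells.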

human P2X7, sequence (Q99572 whole entry): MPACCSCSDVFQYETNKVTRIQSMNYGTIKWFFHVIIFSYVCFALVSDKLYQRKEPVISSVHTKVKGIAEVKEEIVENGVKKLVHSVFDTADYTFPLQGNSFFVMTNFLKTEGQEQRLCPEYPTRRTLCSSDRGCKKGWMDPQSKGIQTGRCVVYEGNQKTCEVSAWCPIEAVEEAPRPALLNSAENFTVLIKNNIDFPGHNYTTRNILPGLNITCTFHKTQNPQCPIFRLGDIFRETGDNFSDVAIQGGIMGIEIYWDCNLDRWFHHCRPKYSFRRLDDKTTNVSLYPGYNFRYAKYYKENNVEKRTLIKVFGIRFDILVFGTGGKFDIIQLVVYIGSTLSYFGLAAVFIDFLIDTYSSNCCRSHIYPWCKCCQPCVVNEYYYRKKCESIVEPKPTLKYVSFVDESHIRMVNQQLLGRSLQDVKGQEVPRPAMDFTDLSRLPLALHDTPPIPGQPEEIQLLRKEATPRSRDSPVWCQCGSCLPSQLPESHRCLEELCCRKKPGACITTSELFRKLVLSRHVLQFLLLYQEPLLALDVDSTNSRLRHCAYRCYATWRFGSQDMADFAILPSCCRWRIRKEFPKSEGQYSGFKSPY
rat P2X7, sequence (Q64663 whole entry): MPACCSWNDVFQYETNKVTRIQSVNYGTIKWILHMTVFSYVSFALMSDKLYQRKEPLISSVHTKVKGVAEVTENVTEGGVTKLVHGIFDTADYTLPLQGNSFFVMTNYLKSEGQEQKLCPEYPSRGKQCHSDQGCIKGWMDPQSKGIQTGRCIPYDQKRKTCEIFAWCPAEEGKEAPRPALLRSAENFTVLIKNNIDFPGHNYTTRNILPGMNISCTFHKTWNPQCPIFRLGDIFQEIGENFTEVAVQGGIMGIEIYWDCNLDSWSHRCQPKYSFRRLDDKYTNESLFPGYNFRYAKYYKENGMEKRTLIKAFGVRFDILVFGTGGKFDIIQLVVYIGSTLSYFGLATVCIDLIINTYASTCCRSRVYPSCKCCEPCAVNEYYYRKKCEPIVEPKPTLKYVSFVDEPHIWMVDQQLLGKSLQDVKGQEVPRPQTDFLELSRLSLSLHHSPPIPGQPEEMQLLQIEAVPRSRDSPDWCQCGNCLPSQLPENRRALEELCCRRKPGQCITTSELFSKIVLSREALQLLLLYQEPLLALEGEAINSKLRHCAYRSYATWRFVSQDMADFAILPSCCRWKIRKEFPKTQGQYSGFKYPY

Row | SMILES | IC50 [1] [nM] | IC50 [2] [nM]
1 | CO[C@H]1CC[C@@](F)(C(=O)NCc2ccc(F)cc2F)c2cccnc21 [Example 342, (5S,8S)-N-(2,4-difluorobenzyl)-5-fluoro-8-methoxy-5,6,7,8-tetrahydroquinoline-5-carboxamide] | < 1000 | 50 to 100
2 | O=C(NCc1c(Cl)cc(Cl)cc1CO)[C@]1(F)CC[C@H](OCCO)c2ncccc21 [Example 343, (5S,8S)-N-(2,4-dichloro-6-(hydroxymethyl)benzyl)-5-fluoro-8-(2-hydroxyethoxy)-5,6,7,8-tetrahydroquinoline-5-carboxamide] | < 1000 | < 50
3 | O=C(NCc1ccc(F)cc1Cl)[C@]1(F)CC[C@H](OCCO)c2ncccc21 [Example 344, (5S,8S)-N-(2-chloro-4-fluorobenzyl)-5-fluoro-8-(2-hydroxyethoxy)-5,6,7,8-tetrahydroquinoline-5-carboxamide] | < 1000 | < 50
4 | O=C(NCc1ccc(F)c(F)c1F)[C@]1(F)CC[C@H](OCCO)c2ncccc21 [Example 345, (5S,8S)-5-fluoro-8-(2-hydroxyethoxy)-N-(2.3.4-trifluorobenzyl)-5,6,7,8-tetrahydroquinoline-5-carboxamide] | < 1000 | < 50
5 | O=C(NCc1ccc(Cl)cc1F)[C@]1(F)CC[C@H](OCCO)c2ncccc21 [Example 346, (5S,8S)-N-(4-chloro-2-fluorobenzyl)-5-fluoro-8-(2-hydroxyethoxy)-5,6,7,8-tetrahydroquinoline-5-carboxamide] | < 1000 | < 50
6 | O=C(NCc1ccc(F)cc1F)[C@]1(F)CC[C@H](OCCO)c2ncccc21 [Example 347, (5S,8S)-N-(2,4-difluorobenzyl)-5-fluoro-8-(2-hydroxyethoxy)-5,6,7,8-tetrahydroquinoline-5-carboxamide] | < 1000 | 50 to 100
7 | O=C(NCc1ccc(Cl)cc1Cl)[C@]1(F)CC[C@H](OCC(O)CO)c2ncccc21 (stereo partly drawn) [Example 349, (5S,8S)—N-(2,4-dichlorobenzyl)-8-(2,3-dihydroxypropoxy)-5-fluoro-5,6,7,8-tetrahydroquinoline-5-carboxamide] | < 1000 | < 50
8 | O=C(NCc1ccc(Cl)cc1Cl)[C@]1(F)CCC(S(=O)(=O)CCO)c2ncccc21 (stereo partly drawn) [Example 351, (5S)-N-(2,4-clichlorebenzyl)-5-fluoro-8-((2-hydroxyethyl)sulfenyl)-5,6,7,8-letrahydroquineline-5-carboxamide] | < 1000 | < 50
9 | O=C(NCc1cccc(C(F)(F)F)c1Cl)[C@@]1(F)CC[C@H](F)c2ncccc21 [Example 352, (5R,8S)-N-(2-chloro-3-(trifluoromethyl)benzyl)-5,8-difluoro-5,6,7,8-tetrahydroquinoline-5-carboxamide] | < 1000 | < 50

Second part, the compound after the results:

Row | IC50 [1] [nM] | IC50 [2] [nM] | SMILES
10 | < 1000 | < 50 | C[C@@H](NC(=O)[C@]1(F)CC[C@@](O)(CO)c2ncccc21)c1ccc(F)cc1Cl [Example 327, (5S,8S)-N-((R)-1-(2-chloro-4-fluorophenyl)ethyl)-5-fluoro-8-hydroxy-8-(hydroxymethyl)-5,6,7,8-tetrahydroquinoline-5-carboxamide]
11 | < 1000 | 101 to 300 | C[C@@H](NC(=O)[C@]1(F)CC[C@](O)(CO)c2ncccc21)c1ccc(F)cc1Cl [Example 328, (5S,8R)-N-((R)-1-(2-chloro-4-fluorophenyl)ethyl)-5-fluoro-8-hydroxy-8-(hydroxymethyl)-5,6,7,8-tetrahydroquinoline-5-carboxamide]
12 | < 1000 | 50 to 100 | O=C(NCc1ncc(Cl)cc1Cl)[C@]1(F)CC[C@@](O)(CO)c2ncccc21 [Example 329, (5S,8S)-N-((3,5-dichloropyridin-2-yl)methyl)-5-fluoro-8-hydroxy-8-(hydroxymethyl)-5,8,7,8-tetrahydroquinoline-5-carboxamide]
13 | < 1000 | 101 to 300 | CO[C@H]1CC[C@](F)(C(=O)NCc2c(Cl)cc(Cl)cc2CO)c2cccnc21 [Example 333, (5R,8S)-N-(2,4-dichloro-6-(hydroxymethyl)benzyl)-5-fluoro-8-methoxy-5,6,7,8-tetrahydroquinoline-5-carboxamide]
14 | < 1000 | < 50 | CO[C@@H]1CC[C@@](F)(C(=O)NCc2c(Cl)cc(Cl)cc2CO)c2cccnc21 [Example 334, (5S,8R)-N-(2,4-dichloro-6-(hydroxymethyl)benzyl)-5-fluoro-8-methoxy-5,6,7,8-tetrahydroquinoline-5-carboxamide]
15 | < 1000 | < 50 | CO[C@H]1CC[C@@](F)(C(=O)NCc2ccc(F)cc2Cl)c2cccnc21 [Example 337, (5S,8S)-N-(2-chloro-4-fluorobenzyl)-5-fluoro-8-methoxy-5,6,7,8-tetrahydroquinoline-5-carboxamide]
16 | < 1000 | < 50 | CO[C@H]1CC[C@@](F)(C(=O)NCc2ccc(C(F)(F)F)cc2Cl)c2cccnc21 [Example 338, (5S,8S)-N-(2-chloro-4-(trifluoromethyl)benzyl)-5-fluoro-8-methoxy-5,6,7,8-tetrahydroquinoline-5-carboxamide]
17 | < 1000 | < 50 | CO[C@H]1CC[C@@](F)(C(=O)NCc2ccc(F)c(F)c2F)c2cccnc21 [Example 339, (5S,8S)-5-fluoro-8-methoxy-N-(2,3,4-trifluorobenzyl)-5,6,7,8-tetrahydroquinoline-5-carboxamide]
18 | < 1000 | < 50 | CO[C@H]1CC[C@@](F)(C(=O)NCc2ccc(Cl)cc2F)c2cccnc21 [Example 340, (5S,8S)-N-(4-chloro-2-fluorobenzyl)-5-fluoro-8-methoxy-5,6,7,8-tetrahydroquinoline-5-carboxamide]
19 | < 1000 | 50 to 100 | CO[C@H]1CC[C@@](F)(C(=O)NCc2c(F)cc(F)cc2F)c2cccnc21 [Example 341, (5S,8S)-5-fluoro-8-methoxy-N-(2,4,6-trifluorobenzyl)-5,6,7,8-tetrahydroquinoline-5-carboxamide]
